In patent US8946426B2, “Substituted bicyclic heterocyclic compounds as gamma secretase modulators” (Janssen Pharmaceuticals, Inc., priority 2009, dated 2015):

Columns and labels:
[1] = system: Aβtotal; assay: Method 1: Aβtotal sandwich ELISA in supernatant of SKNBE2 cells carrying APP 695-wild type (Tables 7a, 7b); assay type: cell-based; conditions: Table 7b, averaged IC50, non-linear regression of percentage of control vs log concentration, 4-parameter equation
Procedure: (§1) Screening was carried out using SKNBE2 cells carrying the APP 695-wild type, grown in Dulbecco's Modified Eagle's Medium/Nutrient mixture F-12 (DMEM/NUT-mix F-12) (HAM) provided by Gibco (cat no. 31330-38) containing 5% Serum/Fe supplemented with 1% non-essential amino acids. Cells were grown to near confluency.
(§2) The screening was performed using the assay as described in Citron et al (1997) Nature Medicine 3: 67. Briefly, cells were plated in a 96-well plate at about 10^5 cells/ml one day prior to addition of compounds. Compounds were added to the cells in Ultraculture (Lonza, BE12-725F) supplemented with 1% glutamine (Invitrogen, 25030-024) for 18 Hours. The media were assayed by two sandwich ELISAs, for Aβ42 and Aβtotal. Toxicity of the compounds was assayed by WST-1 cell proliferation reagent (Roche, 1 644 807) according to the manufacturer's protocol.
To quantify the amount of Aβtotal in the cell supernatant, samples and standards were added to a 6E10-coated plate. The plate was allowed to incubate overnight at 4° C. in order to allow formation of the antibody-amyloid complex. Following this incubation and subsequent wash steps a selective anti-Aβ-antibody conjugate (biotinylated 4G8) was added and incubated for a minimum of 1 Hour in order to allow formation of the antibody-Amyloid-antibody-complex. After incubation and appropriate wash steps, a Streptavidine-Peroxidase-Conjugate was added, followed 30 minutes later by an addition of Quanta Blu fluorogenic peroxidase substrate according to the manufacturer's instructions (Pierce Corp., Rockford, Ill.).
(§3) To obtain the values reported in Table 7a, the sigmoidal dose response curves were analysed by computerised curve-fitting, with percent of inhibition plotted against compound concentration. A 4-parameter equation (model 205) in XLfit was used to determine the IC50. The top and the bottom of the curve were fixed to 100 and 0, respectively, and the hill slope was fixed to 1. The IC50 represents the concentration of a compound that is required for inhibiting a biological effect by 50% (Here, it is the concentration where Aβ peptide level is reduced by 50%).
(§4) To obtain the values reported in Table 7b, the data were calculated as percentage of the maximum amount of amyloid Beta 42 measured in the absence of the test compound. The sigmoidal dose response curves were analyzed using non-linear regression analysis with percentage of the control plotted against the log concentration of the compound. A 4-parameter equation was used to determine the IC50. The values reported in Table 7b are averaged IC50 values.

[2] = system: Aβ42; assay: Method 1: Aβ42 sandwich ELISA in supernatant of SKNBE2 cells carrying APP 695-wild type (Tables 7a, 7b); assay type: cell-based; conditions: Table 7b, averaged IC50, non-linear regression of percentage of control vs log concentration, 4-parameter equation
Procedure: as §1, §2
To quantify the amount of Aβ42 in the cell supernatant, commercially available Enzyme-Linked-Immunosorbent-Assay (ELISA) kits were used (Innotest® β-Amyloid(1-42), Innogenetics N.V., Ghent, Belgium). The Aβ42 ELISA was performed essentially according to the manufacturer's protocol. Briefly, the standards (dilutions of synthetic Aβ1-42) were prepared in polypropylene Eppendorf with final concentrations of 8000 down to 3.9 pg/ml (½ dilution step). Samples, standards and blanks (100 μl) were added to the anti-Aβ42-coated plate supplied with the kit (the capture antibody selectively recognizes the C-terminal end of the antigen). The plate was allowed to incubate 3 H at 25° C. in order to allow formation of the antibody-amyloid complex. Following this incubation and subsequent wash steps a selective anti-Aβ-antibody conjugate (biotinylated 3D6) was added and incubated for a minimum of 1 Hour in order to allow formation of the antibody-Amyloid-antibody-complex. After incubation and appropriate wash steps, a Streptavidine-Peroxidase-Conjugate was added, followed 30 minutes later by an addition of 3,3′,5,5′-tetramethylbenzidine (TMB)/peroxide mixture, resulting in the conversion of the substrate into a coloured product. This reaction was stopped by the addition of sulfuric acid (0.9 N) and the colour intensity was measured by means of photometry with an ELISA-reader with a 450 nm filter.
as §3, §4

Row | SMILES | IC50 [1] | IC50 [2] | IC50 ([1]; Homo sapiens, SKNBE2) | IC50 ([2]; Homo sapiens, SKNBE2)
1 | Cc1ncc(-c2ccc(Nc3cc(F)cc4c3nc(N3CCCC3)n4C)cc2)o1 [Compound 90] | > 3000 nM | 1100 nM | – | –
2 | COc1cc(Nc2nccc3c2nc(CCC(F)(F)F)n3C)ccc1-c1cnc(C)o1 [Compound 91] | 66100 nM | 1440 nM | – | –
3 | COc1cc(Nc2nc(C)cc3c2nc(C2CCOCC2)n3C)ccc1-c1cnc(C)o1 [Compound 92] | > 3000 nM | 2570 nM | – | –
4 | COc1cc(Nc2nc(C3CC3)cc3c2nc(-c2ccc(F)cc2)n3C)ccc1-c1cnc(C)o1 [Compound 94] | > 3000 nM | 83 nM | – | –
5 | COc1cccc(-c2nc3c(Nc4ccc(-c5cnc(C)o5)cc4)nc(C)cc3n2C)c1 [Compound 98] | > 3000 nM | 71 nM | – | –
6 | Cc1ncc(-c2ccc(Nc3cc(C(F)(F)F)cc4c3nc(C3CCOCC3)n4C)cc2)o1 [Compound 100] | 25100 nM | 2240 nM | – | –
7 | COc1cc(Nc2nc(C)cc3c2nc(-c2cccc(OC(C)C)c2)n3C)ccc1-c1cnc(C)o1 [Compound 102] | > 3000 nM | 24 nM | – | –
8 | COc1cccc(-c2nc3c(Nc4ccc(-c5cnc(C)o5)nc4)cc(C#N)cc3n2C)c1 [Compound 103] | > 3000 nM | 36 nM | – | –
9 | COc1cc(Nc2cc(F)cc3c2nc(N(C)CC(C)C)n3C)ccc1-c1cnc(C)o1 [Compound 108] | > 10000 nM | 132 nM | – | –
10 | COc1cccc(-c2nc3c(Nc4ccc(-c5cnc(C)o5)c(F)c4)nccc3n2C)c1 [Compound 109] | 2820 nM | 145 nM | – | –
11 | Cc1ncoc1-c1ccc(Nc2cc(C#N)cc3c2nc(-c2ccc(F)cc2)n3C)cn1 [Compound 110] | > 3000 nM | 83 nM | – | –
12 | Cc1ncoc1-c1ccc(Nc2cccc3c2nc(-c2cccc(Cl)c2)n3C(C)C)cn1 [Compound 112] | > 1000 nM | 28 nM | – | –
13 | Cc1ncoc1-c1ccc(Nc2cc(F)cc3c2nc(-c2ccccc2Cl)n3C)cn1 [Compound 114] | > 3000 nM | 72 nM | – | –
14 | Cc1ncoc1-c1ccc(Nc2nccc3c2nc(-c2ccccc2Cl)n3C)cn1 [Compound 117] | > 10000 nM | 724 nM | – | –
15 | COc1cc(Nc2cc(CN)cc3c2nc(-c2ccc(F)cc2)n3C)ccc1-c1ocnc1C [Compound 120] | – | – | > 3000 nM | 324 nM
16 | COc1cccc(-c2nc3c(Nc4ccc(-c5ocnc5C)c(OC)c4)nc(C)cc3n2C)c1 [Compound 121] | > 3000 nM | 20 nM | – | –
17 | COc1cccc(-c2nc3c(Nc4ccc(-c5ocnc5C)c(OC)c4)cc(C#N)cc3n2C)c1 [Compound 122] | > 3000 nM | 38 nM | – | –
18 | COc1cc(Nc2cc(C#N)cc3c2nc(-c2ccc(F)cc2)n3C)ccc1-c1ocnc1C [Compound 123] | > 1000 nM | 26 nM | – | –
19 | Cc1ncoc1-c1ccc(Nc2cccc3c2nc(-c2ccc(F)cc2)n3C)cc1 [Compound 124] | > 3000 nM | 51 nM | – | –
20 | COc1cc(Nc2cc(C(F)(F)F)cn3c(C)c(C)nc23)ccc1-c1ocnc1C [Compound 142] | > 10000 nM | 468 nM | – | –
21 | COc1cc(Nc2cc(C(F)(F)F)cn3cc(C(=O)N(C)C)nc23)ccc1-c1ocnc1C [Compound 143] | > 30000 nM | 9770 nM | – | –

Row | SMILES | IC50 [1] | IC50 [2] | IC50 ([1]; Homo sapiens, SKNBE2) | IC50 ([2]; Homo sapiens, SKNBE2)
22 | COc1cc(Nc2cccn3c(C)c(C)nc23)ccc1-c1ocnc1C [Compound 144] | 13800 nM | 468 nM | – | –
23 | COc1cc(Nc2cc(C#N)cn3cc(-c4ccc(F)cc4C)nc23)ccc1-c1ocnc1C [Compound 146] | > 30000 nM | 355 nM | – | –
24 | COc1cc(Nc2cc(C)cn3cc(-c4ccc(F)cc4C)nc23)ccc1-c1ocnc1C [Compound 149] | > 3000 nM | 47 nM | – | –
25 | COc1cc(Nc2cc(CN)cn3cc(-c4ccc(F)cc4C)nc23)ccc1-c1ocnc1C [Compound 150] | 8130 nM | 437 nM | – | –
26 | COc1cccc(-c2nc3c(Nc4ccc(-c5ocnc5C)cc4)cccn3c2C)c1 [Compound 152] | > 3000 nM | 23 nM | – | –
27 | COc1cc(Nc2nc(C3CC3)cn3cc(C)nc23)ccc1-c1ocnc1C [Compound 153] | > 3000 nM | 1320 nM | – | –
28 | Cc1ncoc1-c1ccc(Nc2cccn3cc(C4CCOCC4)nc23)cn1 [Compound 154] | > 3000 nM | 2040 nM | – | –
29 | COc1cc(Nc2cccn3cc(C4CCOCC4)nc23)ccc1-c1ocnc1C [Compound 155] | 14800 nM | 389 nM | – | –
30 | Cc1ncoc1-c1ccc(Nc2cccn3cc(C4CC4)nc23)cn1 [Compound 160] | > 3000 nM | 138 nM | – | –
31 | Cc1ncc(-c2ccc(Nc3cccn4cc(C5CC5)nc34)cc2)o1 [Compound 166] | > 3000 nM | 741 nM | – | –
32 | COCCCc1c(-c2ccccc2C(F)(F)F)nc2c(Nc3ccc(-c4cnc(C)o4)c(OC)c3)cccn12 [Compound 169] | – | – | > 3000 nM | 45 nM
33 | Cc1ncc(-c2ccc(Nc3cc(F)cn4cc(-c5ccc(F)cc5C)nc34)cc2)o1 [Compound 176] | > 3000 nM | 41 nM | – | –
34 | C=C(C)c1c(-c2ccc(F)cc2)nc2c(Nc3ccc(-c4cnc(C)o4)cc3)cccn12 [Compound 177] | – | – | > 3000 nM | 105 nM
35 | Cc1ncc(-c2ccc(Nc3cc(F)cn4cc(CC(C)C)nc34)cc2)o1 [Compound 178] | > 3000 nM | 85 nM | – | –
36 | Cc1nc2c(Nc3ccc(-c4cnc(C(C)C)o4)cc3)cccn2c1C [Compound 180] | > 3000 nM | > 3000 nM | – | –
37 | COc1cc(Nc2cc(C3CC3)nc3c2nc(-c2ccc(F)cc2)n3C)ccc1-c1cnc(C)o1 [Compound 192] | > 3000 nM | 13 nM | – | –
38 | COc1cc(Nc2cc(C)nc3c2nc(-c2ccc(F)cc2)n3C)ccc1-c1cnc(C)o1 [Compound 193] | > 3000 nM | 19 nM | – | –
39 | COc1cc(Nc2cc(C(F)(F)F)nn3cc(C)nc23)ccc1-c1ocnc1C [Compound 196] | > 3000 nM | 676 nM | – | –
40 | COc1cc(Nc2cncc3c2nc(-c2ccc(F)cc2)n3C)ccc1-c1ocnc1C [Compound 199] | > 30000 nM | 240 nM | – | –
41 | Cc1ncc(-c2ccc(Nc3cncc4c3nc(-c3ccc(F)cc3)n4C)cn2)o1 [Compound 200] | > 3000 nM | 295 nM | – | –
